Test: Drug release from loaded sponges at 37° C. in deionized water
Format: physicochemical
Details: comparison among model drugs MB, ORO, TH
Text: To maintain constant therapeutic levels for prolonged periods and to reduce the total dose of administration, the ability of a carrier to prolong drug release is required.

With CN(C)[C@@H]1C(=O)C(C(N)=O)=C(O)[C@@]2(O)C(=O)C3=C(O)c4c(O)cccc4[C@@](C)(O)[C@H]3C[C@@H]12.Cl [TH] the drug release sustainability was “more sustainable as compared to that of ORO”.

From patent US11123434B2, “Drug delivery device and its method of manufacture” (City University of Hong Kong, priority 2017, dated 2021)
